Reference: US20230085307A1, “PYRIDAZINONE COMPOUND AND HERBICIDE” (NISSAN CHEMICAL CORPORATION, priority 2019, published 2023)

Legend:
[1] = test system: barnyard grass; experiment: Test Example 4: herbicidal effect by soil treatment (Table 19, symbol H); assay type: in vivo, barnyard grass (Echinochloa crus-galli); details: amount of applied herbicide 320 g/ha
How it was run: (§1)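 In this soil treatment, the formulated compound reached the seeds only through the soil: seeds were buried about 1.5 cm deep in sterilized diluvial soil, then the diluted emulsion was sprayed over the surface. After three weeks at 25° C. to 30° C. in a greenhouse, effects were graded on criteria from an earlier test.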

[2] = test system: chickweed; experiment: Test Example 4: herbicidal effect by soil treatment (Table 19, symbol P); assay type: in vivo, common chickweed (Stellaria media); details: amount of applied herbicide 320 g/ha
How it was run: as §1

[3] = test system: Chinese sprangletop; experiment: Test Example 3: herbicidal effect by foliage application, Wagner pot (Table 18, symbol D); assay type: in vivo, chinese sprangletop (Leptochloa chinensis); details: 320 g/ha
How it was run: (§2)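 Plants were sown in alluvial soil held under 0.1–0.5 cm standing water and grown 14 days in a greenhouse at 25–30 °C. An emulsifiable formulation, water-diluted to the set dose, was then sprayed onto the foliage, and effects were scored three weeks later using previously defined criteria.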

[4] = test system: barnyard grass; experiment: Test Example 3: herbicidal effect by foliage application, Wagner pot (Table 18, symbol H); assay type: in vivo, barnyard grass (Echinochloa crus-galli); details: 320 g/ha
How it was run: as §2

[5] = test system: windgrass; experiment: Test Example 4: herbicidal effect by soil treatment (Table 19, symbol L); assay type: in vivo, windgrass (Apera spica-venti); details: amount of applied herbicide 320 g/ha
How it was run: as §1

[6] = test system: barnyard grass; experiment: Test Example 5: herbicidal effect by foliage application, plastic box (Table 20, symbol H); assay type: in vivo, barnyard grass (Echinochloa crus-galli); details: amount of applied herbicide 320 g/ha; foliage application after 14-day growth; evaluated three weeks after application
How it was run: (§3)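 Plants were sown into sterilized diluvial soil under about 1.5 cm cover and kept in a greenhouse at 25° C. to 30° C. Fourteen days on, foliage received an even spray of the diluted emulsion. Herbicidal or crop effect was judged three weeks afterwards.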

[7] = test system: windgrass; experiment: Test Example 5: herbicidal effect by foliage application, plastic box (Table 20, symbol L); assay type: in vivo, windgrass (Apera spica-venti); details: amount of applied herbicide 320 g/ha; foliage application after 14-day growth; evaluated three weeks after application
How it was run: as §3

[8] = test system: wild oat; experiment: Test Example 4: herbicidal effect by soil treatment (Table 19, symbol I); assay type: in vivo, wild oat (Avena fatua); details: amount of applied herbicide 320 g/ha
How it was run: as §1

[9] = test system: lambsquarters; experiment: Test Example 5: herbicidal effect by foliage application, plastic box (Table 20, symbol O); assay type: in vivo, lambsquarters (Chenopodium album); details: amount of applied herbicide 320 g/ha; foliage application after 14-day growth; evaluated three weeks after application
How it was run: as §3

[10] = test system: rice flat sedge; experiment: Test Example 3: herbicidal effect by foliage application, Wagner pot (Table 18, symbol E); assay type: in vivo, rice flat sedge (Cyperus iria); details: 320 g/ha
How it was run: as §2

[11] = test system: false cleavers; experiment: Test Example 5: herbicidal effect by foliage application, plastic box (Table 20, symbol Q); assay type: in vivo, false cleavers (Galium spurium); details: amount of applied herbicide 320 g/ha; foliage application after 14-day growth; evaluated three weeks after application
How it was run: as §3

[12] = test system: persian speedwell; experiment: Test Example 4: herbicidal effect by soil treatment (Table 19, symbol R); assay type: in vivo, Persian speedwell (Veronica persica); details: amount of applied herbicide 320 g/ha
How it was run: as §1

[13] = test system: velvetleaf; experiment: Test Example 4: herbicidal effect by soil treatment (Table 19, symbol M); assay type: in vivo, velvetleaf (Abutilon theophrasti); details: amount of applied herbicide 320 g/ha
How it was run: as §1

[14] = test system: southern crabgrass; experiment: Test Example 5: herbicidal effect by foliage application, plastic box (Table 20, symbol F); assay type: in vivo, southern crabgrass (Digitaria ciliaris); details: amount of applied herbicide 320 g/ha; foliage application after 14-day growth; evaluated three weeks after application
How it was run: as §3

[15] = test system: velvetleaf; experiment: Test Example 5: herbicidal effect by foliage application, plastic box (Table 20, symbol M); assay type: in vivo, velvetleaf (Abutilon theophrasti); details: amount of applied herbicide 320 g/ha; foliage application after 14-day growth; evaluated three weeks after application
How it was run: as §3

[16] = test system: Italian ryegrass; experiment: Test Example 5: herbicidal effect by foliage application, plastic box (Table 20, symbol K); assay type: in vivo, Italian ryegrass (Lolium multiflorum); details: amount of applied herbicide 320 g/ha; foliage application after 14-day growth; evaluated three weeks after application
How it was run: as §3

[17] = test system: Japanese bulrush; experiment: Test Example 1: herbicidal activity, application before weed generation under submerged conditions (Table 16, symbol B); assay type: in vivo, Japanese bulrush (Schoenoplectus juncoides); details: amount of applied herbicide 320 g/ha
How it was run: (§4)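 Emulsion formulation, water-diluted to set dose, was put onto the flooded surface (4 cm depth, alluvial soil) the same day weeds were sown and 2.5-leaf rice transplanted. After 3 weeks at 25-30 °C under glass, each species was rated 0 (≤5% kill) to 5 (≥90% kill).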

[18] = test system: oval-leafed pondweed; experiment: Test Example 1: herbicidal activity, application before weed generation under submerged conditions (Table 16, symbol C); assay type: in vivo, oval-leafed pondweed (Monochoria vaginalis); details: amount of applied herbicide 320 g/ha
How it was run: as §4

[19] = test system: lambsquarters; experiment: Test Example 4: herbicidal effect by soil treatment (Table 19, symbol O); assay type: in vivo, lambsquarters (Chenopodium album); details: amount of applied herbicide 320 g/ha
How it was run: as §1

[20] = test system: green foxtail; experiment: Test Example 5: herbicidal effect by foliage application, plastic box (Table 20, symbol G); assay type: in vivo, green foxtail (Setaria viridis); details: amount of applied herbicide 320 g/ha; foliage application after 14-day growth; evaluated three weeks after application
How it was run: as §3

[21] = test system: southern crabgrass; experiment: Test Example 4: herbicidal effect by soil treatment (Table 19, symbol F); assay type: in vivo, southern crabgrass (Digitaria ciliaris); details: amount of applied herbicide 320 g/ha
How it was run: as §1

[22] = test system: blackgrass; experiment: Test Example 4: herbicidal effect by soil treatment (Table 19, symbol J); assay type: in vivo, blackgrass (Alopecurus myosuroides); details: amount of applied herbicide 320 g/ha
How it was run: as §1

[23] = test system: green foxtail; experiment: Test Example 4: herbicidal effect by soil treatment (Table 19, symbol G); assay type: in vivo, green foxtail (Setaria viridis); details: amount of applied herbicide 320 g/ha
How it was run: as §1

[24] = test system: persian speedwell; experiment: Test Example 5: herbicidal effect by foliage application, plastic box (Table 20, symbol R); assay type: in vivo, Persian speedwell (Veronica persica); details: amount of applied herbicide 320 g/ha; foliage application after 14-day growth; evaluated three weeks after application
How it was run: as §3

[25] = test system: late watergrass; experiment: Test Example 1: herbicidal activity, application before weed generation under submerged conditions (Table 16, symbol A); assay type: in vivo, late watergrass (Echinochloa oryzicola); details: amount of applied herbicide 320 g/ha
How it was run: as §4

[26] = test system: chickweed; experiment: Test Example 5: herbicidal effect by foliage application, plastic box (Table 20, symbol P); assay type: in vivo, common chickweed (Stellaria media); details: amount of applied herbicide 320 g/ha; foliage application after 14-day growth; evaluated three weeks after application
How it was run: as §3

[27] = test system: blackgrass; experiment: Test Example 5: herbicidal effect by foliage application, plastic box (Table 20, symbol J); assay type: in vivo, blackgrass (Alopecurus myosuroides); details: amount of applied herbicide 320 g/ha; foliage application after 14-day growth; evaluated three weeks after application
How it was run: as §3

[28] = test system: redroot pigweed; experiment: Test Example 4: herbicidal effect by soil treatment (Table 19, symbol N); assay type: in vivo, redroot pigweed (Amaranthus retroflexus); details: amount of applied herbicide 320 g/ha
How it was run: as §1

[29] = test system: Italian ryegrass; experiment: Test Example 4: herbicidal effect by soil treatment (Table 19, symbol K); assay type: in vivo, Italian ryegrass (Lolium multiflorum); details: amount of applied herbicide 320 g/ha
How it was run: as §1

[30] = test system: redroot pigweed; experiment: Test Example 5: herbicidal effect by foliage application, plastic box (Table 20, symbol N); assay type: in vivo, redroot pigweed (Amaranthus retroflexus); details: amount of applied herbicide 320 g/ha; foliage application after 14-day growth; evaluated three weeks after application
How it was run: as §3

[31] = test system: wild oat; experiment: Test Example 5: herbicidal effect by foliage application, plastic box (Table 20, symbol I); assay type: in vivo, wild oat (Avena fatua); details: amount of applied herbicide 320 g/ha; foliage application after 14-day growth; evaluated three weeks after application
How it was run: as §3

Compound	H: barnyard grass, herbicidal effect grade [1]	P: chickweed, herbicidal effect grade [2]	herbicidal effect on Chinese sprangletop (D) [3]	herbicidal effect on barnyard grass (H) [4]	L: windgrass, herbicidal effect grade [5]	Herbicidal effect by foliage application, H: barnyard grass [6]	Herbicidal effect by foliage application, L: windgrass [7]	I: wild oat, herbicidal effect grade [8]	Herbicidal effect by foliage application, O: lambsquarters [9]	herbicidal effect on rice flat sedge (E) [10]	Herbicidal effect by foliage application, Q: false cleavers [11]	R: persian speedwell, herbicidal effect grade [12]	M: velvetleaf, herbicidal effect grade [13]	Herbicidal effect by foliage application, F: southern crabgrass [14]	Herbicidal effect by foliage application, M: velvetleaf [15]	Herbicidal effect by foliage application, K: Italian ryegrass [16]	Herbicidal effect, B: Japanese bulrush [17]	Herbicidal effect, C: oval-leafed pondweed [18]	O: lambsquarters, herbicidal effect grade [19]	Herbicidal effect by foliage application, G: green foxtail [20]	other results
CCCC(=O)Oc1c(C)nn(C)c(=O)c1-c1c(-c2ccc(C)cc2)sc2cc(F)c(F)cc12 [5-004]	0 (Herbicidal rate of 5% or less (almost no effect))	0 (Herbicidal rate of 5% or less (almost no effect))	0 (Herbicidal rate of 5% or less (almost no effect))	3 (Herbicidal rate of 40% or more and less than 70%)	0 (Herbicidal rate of 5% or less (almost no effect))	0 (Herbicidal rate of 5% or less (almost no effect))	1 (Herbicidal rate of 5% or more and less than 20%)	0 (Herbicidal rate of 5% or less (almost no effect))	4 (Herbicidal rate of 70% or more and less than 90%)	0 (Herbicidal rate of 5% or less (almost no effect))	0 (Herbicidal rate of 5% or less (almost no effect))	0 (Herbicidal rate of 5% or less (almost no effect))	0 (Herbicidal rate of 5% or less (almost no effect))	0 (Herbicidal rate of 5% or less (almost no effect))	3 (Herbicidal rate of 40% or more and less than 70%)	1 (Herbicidal rate of 5% or more and less than 20%)	3 (Herbicidal rate of 40% or more and less than 70%)	0 (Herbicidal rate of 5% or less (almost no effect))	4 (Herbicidal rate of 70% or more and less than 90%)	3 (Herbicidal rate of 40% or more and less than 70%)	F: southern crabgrass, herbicidal effect grade [21]: 0 (Herbicidal rate of 5% or less (almost no effect)); J: blackgrass, herbicidal effect grade [22]: 0 (Herbicidal rate of 5% or less (almost no effect)); G: green foxtail, herbicidal effect grade [23]: 0 (Herbicidal rate of 5% or less (almost no effect)); Herbicidal effect by foliage application, R: persian speedwell [24]: 3 (Herbicidal rate of 40% or more and less than 70%); Herbicidal effect, A: late watergrass [25]: 2 (Herbicidal rate of 20% or more and less than 40%); Herbicidal effect by foliage application, P: chickweed [26]: 3 (Herbicidal rate of 40% or more and less than 70%); Herbicidal effect by foliage application, J: blackgrass [27]: 0 (Herbicidal rate of 5% or less (almost no effect)); N: redroot pigweed, herbicidal effect grade [28]: 3 (Herbicidal rate of 40% or more and less than 70%); K: Italian ryegrass, herbicidal effect grade [29]: 0 (Herbicidal rate of 5% or less (almost no effect)); Herbicidal effect by foliage application, N: redroot pigweed [30]: 2 (Herbicidal rate of 20% or more and less than 40%); Herbicidal effect by foliage application, I: wild oat [31]: 0 (Herbicidal rate of 5% or less (almost no effect))
CCCC(=O)Oc1c(C)nn(C)c(=O)c1-c1c(-c2ccc(COC)cc2)sc2cc(F)c(F)cc12 [5-010]	2 (Herbicidal rate of 20% or more and less than 40%)	0 (Herbicidal rate of 5% or less (almost no effect))	3 (Herbicidal rate of 40% or more and less than 70%)	3 (Herbicidal rate of 40% or more and less than 70%)	0 (Herbicidal rate of 5% or less (almost no effect))	1 (Herbicidal rate of 5% or more and less than 20%)	0 (Herbicidal rate of 5% or less (almost no effect))	0 (Herbicidal rate of 5% or less (almost no effect))	3 (Herbicidal rate of 40% or more and less than 70%)	4 (Herbicidal rate of 70% or more and less than 90%)	5 (Herbicidal rate of 90% or more (almost completely withered))	2 (Herbicidal rate of 20% or more and less than 40%)	2 (Herbicidal rate of 20% or more and less than 40%)	0 (Herbicidal rate of 5% or less (almost no effect))	0 (Herbicidal rate of 5% or less (almost no effect))	1 (Herbicidal rate of 5% or more and less than 20%)	2 (Herbicidal rate of 20% or more and less than 40%)	0 (Herbicidal rate of 5% or less (almost no effect))	3 (Herbicidal rate of 40% or more and less than 70%)	4 (Herbicidal rate of 70% or more and less than 90%)	F: southern crabgrass, herbicidal effect grade [21]: 0 (Herbicidal rate of 5% or less (almost no effect)); J: blackgrass, herbicidal effect grade [22]: 0 (Herbicidal rate of 5% or less (almost no effect)); G: green foxtail, herbicidal effect grade [23]: 0 (Herbicidal rate of 5% or less (almost no effect)); Herbicidal effect by foliage application, R: persian speedwell [24]: 5 (Herbicidal rate of 90% or more (almost completely withered)); Herbicidal effect, A: late watergrass [25]: 0 (Herbicidal rate of 5% or less (almost no effect)); Herbicidal effect by foliage application, P: chickweed [26]: 3 (Herbicidal rate of 40% or more and less than 70%); Herbicidal effect by foliage application, J: blackgrass [27]: 0 (Herbicidal rate of 5% or less (almost no effect)); N: redroot pigweed, herbicidal effect grade [28]: 3 (Herbicidal rate of 40% or more and less than 70%); K: Italian ryegrass, herbicidal effect grade [29]: 0 (Herbicidal rate of 5% or less (almost no effect)); Herbicidal effect by foliage application, N: redroot pigweed [30]: 2 (Herbicidal rate of 20% or more and less than 40%); Herbicidal effect by foliage application, I: wild oat [31]: 0 (Herbicidal rate of 5% or less (almost no effect))
